Data on five compounds can be found in patent publication US4546107A, “1,4-Methano-2-benzazepine derivatives useful as cerebal dysfunction-improving drugs, anti-convulsant, anti-epileptic or anti-anxiety drugs” (priority 1982, dated 1985).

For one assay, the system named is bicuculline. The experiment in a line: Anti-bicuculline action (bicuculline-induced tonic-extensile convulsions in mice). The format is in vivo, male dd mice. The settings on record: for ED50: Mus musculus, po, 5 min, read-out: Anti-bicuculline-convulsive action, ED50. Here is the method: 2. Anti-bicuculline Action
Groups each of 4-14 male dd mice were used. Each test compound was administered orally and 60 minutes thereafter, bicuculline (0.6 mg/kg) was administered intravenously. The dose (ED50) required for 50% suppression of the occurrence of tonic-extensile convulsions within 5 minutes against the control group was determined.

In the next assay the test system is picrotoxin. The assay is described as follows: Anti-picrotoxin action (picrotoxin-induced lethality in mice). It is filed as in vivo, male dd mice. The settings on record: for ED50: Mus musculus, po, 0.5 h, read-out: Anti-picrotoxin-lethal action, ED50. The method, then:
1. Anti-picrotoxin Action
Groups each of 7-14 male dd mice were used. A test compound was orally administered and 60 minutes thereafter, picrotoxin (5 mg/kg) was administered subcutaneously. The 50% anti-lethal dose (ED50) was calculated from the servival rate within 30 minutes.

The structures appear in SMILES notation. A value given as a limit tells only on which side of the number the result lay.

Take `COc1ccc2c(c1)C1CC(C2)C(=O)N1C` (stereo not drawn) [E, 8Methoxy-2-methyl-1,4-methano-2,3,4,5-tetrahydro-1H--2-benzazepin3-one]: the ED50 with bicuculline and in the assay with picrotoxin was more than 100 mg/kg in each case. In addition, the “Anti-bicuculline-convulsive action, percent in parentheses” value in the assay with bicuculline (printed beside ED50 >100 mg/kg, p.o., mice, bicuculline 0.6 mg/kg i.v.) is listed as 0%. For the same compound, in the assay with picrotoxin (printed beside ED50 >100 mg/kg, p.o., mice, picrotoxin 5 mg/kg s.c.), the “Anti-picrotoxin-lethal action, percent in parentheses” value is listed as 0%.

`O=C1NC2CC1Cc1ccccc12` (stereo not drawn) [D, 1,4Methano-2,3,4,5-tetrahydro-1H--2benzazepin-3-one]: the figures for the 50% effective dose (ED50) in the assay on bicuculline and with picrotoxin were more than 1000 mg/kg and 1100 mg/kg, respectively.

As for `CN1C(=O)C2Cc3ccc(Cl)cc3C1C2` (stereo not drawn) [B, 8-chloro-2-methyl-1,4-methano-2,3,4,5-tetrahydro-1H-2-benzazepin-3-one], the ED50 (commonly the dose that gives a 50% effect, or the effect in half of the subjects) stood at 45 mg/kg in the assay on bicuculline and 66 mg/kg in the assay with picrotoxin.

With `O=C1NC2CC1Cc1c(Cl)cc(Cl)cc12` (stereo not drawn) [C, 6,8-dichloro-1,4-methano-2,3,4,5-tetrahydro-1H-2-benzazepin-3-one], the values for the ED50 in the assay with bicuculline and with picrotoxin were 73 mg/kg and 50 mg/kg, respectively.

Consider `O=C1NC2CC1Cc1ccc(Cl)cc12` (stereo not drawn) [A, 8-chloro-1,4-methano-2,3,4,5-tetrahydro-1H-2-benzazepin-3-one], for which the median effective dose (ED50) came out at 95 mg/kg in the assay with bicuculline and 62 mg/kg with picrotoxin.
